Assay results reported in US11427869B2, “T cell balance gene expression, compositions of matters and methods of use thereof” (THE BROAD INSTITUTE, INC., priority 2015, dated 2022).

Test system: CD5L−/− Th17 cells
Test: Nanostring nCounter Th17 codeset (312 genes), PUFA- or control-treated CD5L−/− Th17 cells
Format: cell-based, mouse
Source text: Applicants studied the contribution of lipid saturation to Th17 cell pathogenicity. […] Applicants analyzed the expression of a 312 gene signature of Th17 cell differentiation and function (Yosef et al., 2013) in SFA- or control-treated WT Th17 cells and in PUFA- or control-treated CD5L−/− Th17 cells differentiated with TGF-81+IL-6.
T cell differentiation culture. Naïve CD4+CD44−CD62L+CD25− T cells or Effector memory CD4+CD44+CD62L− were sorted using BD FACSAria sorter and activated with plate-bound anti-CD3 and anti-CD28 antibodies (both at 2 μg/ml) in the presence of cytokines at a concentration of 2.5×10^5 cells/ml. For Th17 differentiation: 2 ng/ml of rhTGFβ1, 2 ng/ml of rhTGFβ3, 25 ng/ml rmIL-6, 20 ng/ml rmIL-18 (all from Miltenyi Biotec) and 20 ng/ml rmIL-23 (R & D systems) were used at various combinations as specified in figures. For Th1 differentiation, 20 ng/ml rmIL-12 (R & D systems); for Th2 differentiation 20 ng/ml rmIL-4 (Miltenyi Biotec); for iTreg differentiation, 2.5 ng/ml of rhTGFβ1 were used (Miltenyi Biotec). For differentiation experiments, cells were harvested at 48 hours. For restimulation experiments, cells were differentiated for 48 hours and resuspended in fresh media with no additional cytokines for 48-72 hours. Cells were re-stimulated with PMA/ionomycin for four hours before analysis for cytokines by intracellular cytokine staining. For experiments with exogenous fatty acid, fatty acids were purchased and resuspended first with serum-free media containing BSA prior being added to culture.
Nanostring nCounter. Nanostring nCounter platform (NanoString Technologies) is used to measure the number of RNA transcripts in RNA samples (FIG. 16I, FIG. 18D). A codeset containing 312 signature genes of Th17 cell differentiation and function as well as 4 additional house-keeping genes were custom-made (Yosef et al., 2013) and used in these experiments. Experimental procedures as detailed by the manufacturer is strictly followed.

CCCCC/C=C\C/C=C\C/C=C\C/C=C\CCCC(=O)O [PUFA, arachidonic acid]
Irf4 expression (Nanostring), normalized to WT (CD5LKO Th17 cells + PUFA): 0.65
Irf7 expression (Nanostring), normalized to WT (CD5LKO Th17 cells + PUFA): 1.17
Irf8 expression (Nanostring), normalized to WT (CD5LKO Th17 cells + PUFA): 1.29
Itga3 expression (Nanostring), normalized to WT (CD5LKO Th17 cells + PUFA): 0.76
Jak3 expression (Nanostring), normalized to WT (CD5LKO Th17 cells + PUFA): 1.27
Jun expression (Nanostring), normalized to WT (CD5LKO Th17 cells + PUFA): 0.64
Kat2b expression (Nanostring), normalized to WT (CD5LKO Th17 cells + PUFA): 1.22
Klf9 expression (Nanostring), normalized to WT (CD5LKO Th17 cells + PUFA): 0.75
Klf10 expression (Nanostring), normalized to WT (CD5LKO Th17 cells + PUFA): 1.30
Klrd1 expression (Nanostring), normalized to WT (CD5LKO Th17 cells + PUFA): 0.63
Lad1 expression (Nanostring), normalized to WT (CD5LKO Th17 cells + PUFA): 1.18
Lgals3bp expression (Nanostring), normalized to WT (CD5LKO Th17 cells + PUFA): 1.34
Litaf expression (Nanostring), normalized to WT (CD5LKO Th17 cells + PUFA): 0.61
Lpxn expression (Nanostring), normalized to WT (CD5LKO Th17 cells + PUFA): 1.39
Maf expression (Nanostring), normalized to WT (CD5LKO Th17 cells + PUFA): 0.84
Maff expression (Nanostring), normalized to WT (CD5LKO Th17 cells + PUFA): 0.77
Map3k5 expression (Nanostring), normalized to WT (CD5LKO Th17 cells + PUFA): 1.49
Mbnl3 expression (Nanostring), normalized to WT (CD5LKO Th17 cells + PUFA): 1.30
Mina expression (Nanostring), normalized to WT (CD5LKO Th17 cells + PUFA): 1.08
Mt1 expression (Nanostring), normalized to WT (CD5LKO Th17 cells + PUFA): 0.79
Mt2 expression (Nanostring), normalized to WT (CD5LKO Th17 cells + PUFA): 0.84
Nfkbie expression (Nanostring), normalized to WT (CD5LKO Th17 cells + PUFA): 1.52
Nkg7 expression (Nanostring), normalized to WT (CD5LKO Th17 cells + PUFA): 1.40
Notch2 expression (Nanostring), normalized to WT (CD5LKO Th17 cells + PUFA): 1.20
Oas2 expression (Nanostring), normalized to WT (CD5LKO Th17 cells + PUFA): 0.82
Peli2 expression (Nanostring), normalized to WT (CD5LKO Th17 cells + PUFA): 0.83
Plac8 expression (Nanostring), normalized to WT (CD5LKO Th17 cells + PUFA): 0.85
Plagl1 expression (Nanostring), normalized to WT (CD5LKO Th17 cells + PUFA): 1.07
Pmepa1 expression (Nanostring), normalized to WT (CD5LKO Th17 cells + PUFA): 1.19
Pou2af1 expression (Nanostring), normalized to WT (CD5LKO Th17 cells + PUFA): 0.86
Prkd3 expression (Nanostring), normalized to WT (CD5LKO Th17 cells + PUFA): 1.51
Pstpip1 expression (Nanostring), normalized to WT (CD5LKO Th17 cells + PUFA): 1.24
Rab33a expression (Nanostring), normalized to WT (CD5LKO Th17 cells + PUFA): 1.50
Rasgrp1 expression (Nanostring), normalized to WT (CD5LKO Th17 cells + PUFA): 1.21
Rel expression (Nanostring), normalized to WT (CD5LKO Th17 cells + PUFA): 0.73
Rela expression (Nanostring), normalized to WT (CD5LKO Th17 cells + PUFA): 0.96
Rfk expression (Nanostring), normalized to WT (CD5LKO Th17 cells + PUFA): 1.07
Rorc expression (Nanostring), normalized to WT (CD5LKO Th17 cells + PUFA): 1.52
Sap30 expression (Nanostring), normalized to WT (CD5LKO Th17 cells + PUFA): 0.81
Sema7a expression (Nanostring), normalized to WT (CD5LKO Th17 cells + PUFA): 1.04
Serpinb1a expression (Nanostring), normalized to WT (CD5LKO Th17 cells + PUFA): 0.77
Ski expression (Nanostring), normalized to WT (CD5LKO Th17 cells + PUFA): 0.86
Slc6a6 expression (Nanostring), normalized to WT (CD5LKO Th17 cells + PUFA): 1.03
Smad3 expression (Nanostring), normalized to WT (CD5LKO Th17 cells + PUFA): 1.03
Socs3 expression (Nanostring), normalized to WT (CD5LKO Th17 cells + PUFA): 1.38
Spp1 expression (Nanostring), normalized to WT (CD5LKO Th17 cells + PUFA): 0.66
Spry1 expression (Nanostring), normalized to WT (CD5LKO Th17 cells + PUFA): 1.02
Stat4 expression (Nanostring), normalized to WT (CD5LKO Th17 cells + PUFA): 1.21
Stat5b expression (Nanostring), normalized to WT (CD5LKO Th17 cells + PUFA): 1.19
Stat6 expression (Nanostring), normalized to WT (CD5LKO Th17 cells + PUFA): 1.13
Sult2b1 expression (Nanostring), normalized to WT (CD5LKO Th17 cells + PUFA): 0.61
Tal2 expression (Nanostring), normalized to WT (CD5LKO Th17 cells + PUFA): 1.52
Tcf4 expression (Nanostring), normalized to WT (CD5LKO Th17 cells + PUFA): 1.29
Tgfb1 expression (Nanostring), normalized to WT (CD5LKO Th17 cells + PUFA): 0.68
Tgfb3 expression (Nanostring), normalized to WT (CD5LKO Th17 cells + PUFA): 1.67
Tgfbr3 expression (Nanostring), normalized to WT (CD5LKO Th17 cells + PUFA): 0.94
Tgm2 expression (Nanostring), normalized to WT (CD5LKO Th17 cells + PUFA): 1.51
Tmem229b expression (Nanostring), normalized to WT (CD5LKO Th17 cells + PUFA): 1.52
Tnfrsf4 expression (Nanostring), normalized to WT (CD5LKO Th17 cells + PUFA): 1.05
Tnip2 expression (Nanostring), normalized to WT (CD5LKO Th17 cells + PUFA): 0.78
Trat1 expression (Nanostring), normalized to WT (CD5LKO Th17 cells + PUFA): 0.85
Trim25 expression (Nanostring), normalized to WT (CD5LKO Th17 cells + PUFA): 1.17
Trps1 expression (Nanostring), normalized to WT (CD5LKO Th17 cells + PUFA): 1.44
Tsc22d3 expression (Nanostring), normalized to WT (CD5LKO Th17 cells + PUFA): 0.66
Ubiad1 expression (Nanostring), normalized to WT (CD5LKO Th17 cells + PUFA): 1.16
Vav3 expression (Nanostring), normalized to WT (CD5LKO Th17 cells + PUFA): 1.20
Xrcc5 expression (Nanostring), normalized to WT (CD5LKO Th17 cells + PUFA): 1.27
nrp1 expression (Nanostring), normalized to WT (CD5LKO Th17 cells + PUFA): 0.90
pou2f1 expression (Nanostring), normalized to WT (CD5LKO Th17 cells + PUFA): 0.66
transcriptional signature (312 gene Th17 codeset, genes >1.5 fold) (PUFA-treated CD5L−/− Th17 cells, TGF-β1+IL-6): resemble WT non-pathogenic Th17 cells
